This is an account of results in patent publication US4142046A, “Intermediates for the preparation of 7-acyl-3-(substituted triazolylthiomethyl)cephalosporins” (SmithKline Corporation, priority 1976, dated 1979).

SMILES strings stand for the structures. Converted amounts (≈) assume the structure as drawn. Read-outs that look alike come from different tables or passages of the source.

The subject of one assay is E. coli HH 33779. Kind of assay: MIC in vitro. Format: cell-based. The following applies: Escherichia coli, HH33779. The protocol: (§1) The compounds of Formula I have antibacterial activity against both Gram-positive and Gram-negative organisms. Minimum inhibitory concentrations (MIC's) ranged from 0.2 to >200 μg./ml. in in vitro testing. […] Compound numbers corresponding to structures are given in the experimental section.

A further assay concerns E. coli SK 12140. Description: MIC in vitro. The assay is classed as cell-based. Conditions: Escherichia coli. The protocol: as §1
In assay [1] the test system is Entero. aerog. ATCC 13048. Kind of assay: MIC in vitro. Format: cell-based. The protocol:
as §1

In another assay the test system is Entero. cloacae HH 31254. Kind of assay: MIC in vitro. The assay is classed as cell-based. Conditions: for MIC: Enterobacter cloacae. The protocol: as §1
A further assay concerns Kleb. pneumo. SK 1200. Description: MIC in vitro. The assay is classed as cell-based. How it is done: as §1
In another assay the test system is Kleb. pneumo. SK 4200. Kind of assay: MIC in vitro. The assay is classed as cell-based. The following applies: read-out: MIC in vitro. The protocol:
as §1

Another assay concerns Proteus Morgani 179. Description: MIC in vitro. The assay is classed as cell-based. How it is done:
as §1

In the next assay the test system is Pseudo. sp. HH 63. Kind of assay: MIC in vitro. Format: cell-based. The protocol: as §1
For another assay, the system named is S. aureus HH 127. Kind of assay: MIC in vitro. Conditions: Staphylococcus aureus, HH127, read-out: MIC in vitro. Format: cell-based. The protocol:
as §1

A further assay concerns S. aureus SK 23390. Kind of assay: MIC in vitro. The assay is classed as cell-based. The following applies: Staphylococcus aureus. The protocol: as §1
Another assay has as its system Salmonella ATCC 12176. Kind of assay: MIC in vitro. The assay is classed as cell-based. Conditions: ATCC12176. The protocol:
as §1

The next assay relates to Serra. marc. ATCC 13880. Description: MIC in vitro. Format: cell-based. The protocol: as §1
Another assay deals with Shigella HH 117. Description: MIC in vitro. The following applies: for MIC: Shigella, HH117, Shigella HH 117. Format: cell-based. How it is done: as §1
In a further assay the test system is Strep. faecalis HH 34358. Description: MIC in vitro. The assay is classed as cell-based. Conditions: Enterococcus faecalis, HH34358, Strep. faecalis HH 34358. The protocol:
as §1

A further assay has as its system E. coli 12140. Kind of assay: In vivo mouse protection (ED50).
A further assay concerns Kleb. pneumo. 4200. Description: In vivo mouse protection (ED50). Conditions: for ED50: Mus musculus.
The test system of the next assay is S. villaluz. Kind of assay: MIC in vitro. The assay is classed as cell-based. Conditions: read-out: MIC in vitro. How it is done: as §1
[2] abbreviates: SK12140, E. coli SK 12140, read-out: MIC in vitro.
Setting [3] is: HH31254, Entero. cloacae HH 31254, read-out: MIC in vitro.
The mark [4] stands for this setting: SK23390, S. aureus SK 23390, read-out: MIC in vitro.
Setting [5] is: Escherichia coli, 12140, po, E. coli 12140, p.o.
[6] abbreviates: Escherichia coli, 12140, sc, E. coli 12140, s.c.
The mark [7] stands for this setting: Kleb. pneumo. SK 1200, read-out: MIC in vitro.
Setting [8] is: SK23390, read-out: MIC in vitro.

For `O=C(O)Cc1nc(SCC2=C(C(=O)O)N3C(=O)C(NC(=O)[C@H](O)c4ccccc4)[C@H]3SC2)n[nH]1` (stereo partly drawn) [IX, 7-D-Mandelamido-3-(5-carboxymethyl-1,2,4-triazol-3-ylthiomethyl)-3-cephem-4-carboxylic acid], the MIC came out at 3.1 µg/mL (≈ 6.13 µM) with E. coli HH 33779; 3.1 µg/mL (≈ 6.13 µM) in the assay with E. coli SK 12140 (setting [2]); 6.3 µg/mL (≈ 12.5 µM) in [1]; 3.1 µg/mL (≈ 6.13 µM) with Entero. cloacae HH 31254 (setting [3]); 0.4 µg/mL (≈ 0.791 µM) with Kleb. pneumo. SK 1200 (read-out: MIC in vitro, Kleb. pneumo. SK 1200); 1.6 µg/mL (≈ 3.16 µM) with Kleb. pneumo. SK 4200 (Kleb. pneumo. SK 4200). Also, the MIC against Proteus Morgani 179 was 200 µg/mL (≈ 396 µM); in the assay on Pseudo. sp. HH 63 it was above 200 µg/mL; in the assay with S. aureus HH 127, 3.1 µg/mL (≈ 6.13 µM); with S. aureus SK 23390 (setting [4]) it was 1.6 µg/mL (≈ 3.16 µM); against Salmonella ATCC 12176, 1.6 µg/mL (≈ 3.16 µM); against Serra. marc. ATCC 13880, above 200 µg/mL. Besides, the MIC came out at 0.8 µg/mL (≈ 1.58 µM) with Shigella HH 117 and 200 µg/mL (≈ 396 µM) with Strep. faecalis HH 34358. Further, the MIC in vitro against Entero. cloacae HH 31254 (Entero. cloacae HH 31254) was 1.6 µg/mL (≈ 3.16 µM); with Kleb. pneumo. SK 1200 (Kleb. pneumo. SK 1200), 0.2 µg/mL (≈ 0.396 µM); with Serra. marc. ATCC 13880, 200 µg/mL (≈ 396 µM); against Shigella HH 117 (Shigella HH 117), 1.6 µg/mL (≈ 3.16 µM). For the same molecule, the ED50 worked out at 41 mg/kg in the assay with E. coli 12140 (setting [5]); 1 mg/kg with E. coli 12140 (setting [6]); 71 mg/kg in the assay on Kleb. pneumo. 4200 (po, Kleb. pneumo. 4200, p.o.); 1.5 mg/kg in the assay with Kleb. pneumo. 4200 (sc, Kleb. pneumo. 4200, s.c.). Moreover, the ED50 in vivo in the assay with Kleb. pneumo. 4200 (Kleb. pneumo. 4200, s.c.) is below 3 mg/kg.
Take `N[C@@H](C(=O)NC1C(=O)N2C(C(=O)O)=C(CSc3[nH]nnc3C(=O)O)CS[C@H]12)c1ccccc1` (stereo partly drawn) [V, 7-(D-α-Aminophenylacetamido)-3-(4-carboxy-1,2,3-triazol-5-ylthiomethyl)-3-cephem-4-carboxylic acid]: the MIC in the assay on E. coli HH 33779 is 25 µg/mL (≈ 51 µM); with E. coli SK 12140 (SK12140, read-out: MIC in vitro, E. coli SK 12140), 12.5 µg/mL (≈ 25.5 µM); in the assay on E. coli SK 12140 (setting [2]), 9 µg/mL (≈ 18.3 µM); in assay [1], 25 µg/mL (≈ 51 µM); in the assay with Kleb. pneumo. SK 1200 (setting [7]) it was 3.1 µg/mL (≈ 6.32 µM); against Proteus Morgani 179, above 200 µg/mL. In addition, the MIC is above 200 µg/mL against Pseudo. sp. HH 63; 12.5 µg/mL (≈ 25.5 µM) with S. aureus HH 127; 19 µg/mL (≈ 38.7 µM) in the assay on S. aureus SK 23390 (setting [4]); 12.5 µg/mL (≈ 25.5 µM) in the assay on S. aureus SK 23390 (setting [8]); 200 µg/mL (≈ 408 µM) with S. villaluz; above 200 µg/mL in the assay on Serra. marc. ATCC 13880. For the same molecule, the MIC in the assay on Strep. faecalis HH 34358 came out at 200 µg/mL (≈ 408 µM). The molecule further showed an MIC in vitro with Kleb. pneumo. SK 1200 (Kleb. pneumo. SK 1200) of 4.7 µg/mL (≈ 9.58 µM). In addition, the median effective dose (ED50) in the assay with E. coli 12140 (setting [5]) is above 200 mg/kg; with E. coli 12140 (setting [6]), 25 mg/kg; in the assay on Kleb. pneumo. 4200 (po, Kleb. pneumo. 4200, p.o.), above 50 mg/kg; in the assay with Kleb. pneumo. 4200 (sc, Kleb. pneumo. 4200, s.c.), above 50 mg/kg.
`O=C(O)C1=C(CSc2[nH]nnc2C(=O)O)CS[C@@H]2C(NC(=O)[C@H](O)c3ccccc3)C(=O)N12` (stereo partly drawn) [VI, 7-D-Mandelamido-3-(4-carboxy-1,2,3-triazol-5-ylthiomethyl)-3-cephem-4-carboxylic acid]: the MIC stood at 25 µg/mL (≈ 50.9 µM) with E. coli HH 33779; 6.3 µg/mL (≈ 12.8 µM) in the assay on E. coli SK 12140 (setting [2]); 50 µg/mL (≈ 102 µM) in assay [1]; 12.5 µg/mL (≈ 25.4 µM) in the assay with Entero. cloacae HH 31254 (HH31254, read-out: MIC in vitro); 3.1 µg/mL (≈ 6.31 µM) with Kleb. pneumo. SK 1200 (setting [7]); 12.5 µg/mL (≈ 25.4 µM) in the assay on Kleb. pneumo. SK 4200. In addition, the MIC against Proteus Morgani 179 was above 200 µg/mL; in the assay on Pseudo. sp. HH 63 it was above 200 µg/mL; in the assay on S. aureus HH 127, 6.3 µg/mL (≈ 12.8 µM); in the assay on S. aureus SK 23390 (setting [8]), 3.1 µg/mL (≈ 6.31 µM); in the assay on S. villaluz, 200 µg/mL (≈ 407 µM); in the assay on Salmonella ATCC 12176, 12.5 µg/mL (≈ 25.4 µM). The MIC is above 200 µg/mL in the assay with Serra. marc. ATCC 13880, 6.3 µg/mL (≈ 12.8 µM) with Shigella HH 117 and above 200 µg/mL with Strep. faecalis HH 34358. For the same molecule, the ED50 in the assay with E. coli 12140 (setting [5]) was above 200 mg/kg; in the assay on E. coli 12140 (setting [6]), 25 mg/kg; with Kleb. pneumo. 4200 (po, Kleb. pneumo. 4200, p.o.), above 200 mg/kg; with Kleb. pneumo. 4200 (sc, Kleb. pneumo. 4200, s.c.), 86 mg/kg.
`N[C@@H](C(=O)NC1C(=O)N2C(C(=O)O)=C(CSc3n[nH]c(CC(=O)O)n3)CS[C@H]12)c1ccccc1` (stereo partly drawn) [VIII, 7-(D-α-Aminophenylacetamido)-3-(5-carboxymethyl-1,2,4-triazol-3-ylthiomethyl)-3-cephem-4-carboxylic acid]: the MIC came to 6.3 µg/mL (≈ 12.5 µM) in the assay on E. coli HH 33779; 3.1 µg/mL (≈ 6.14 µM) in the assay on E. coli SK 12140 (setting [2]); 6.3 µg/mL (≈ 12.5 µM) in [1]; 3.1 µg/mL (≈ 6.14 µM) in the assay with Entero. cloacae HH 31254 (setting [3]); 1.6 µg/mL (≈ 3.17 µM) in the assay with Kleb. pneumo. SK 1200 (setting [7]); 1.6 µg/mL (≈ 3.17 µM) with Kleb. pneumo. SK 4200 (Kleb. pneumo. SK 4200). In addition, the MIC against Proteus Morgani 179 was 200 µg/mL (≈ 396 µM); against Pseudo. sp. HH 63, above 200 µg/mL; in the assay with S. aureus HH 127, 12.5 µg/mL (≈ 24.8 µM); with S. aureus SK 23390 (setting [4]), 25 µg/mL (≈ 49.5 µM); against Salmonella ATCC 12176, 0.8 µg/mL (≈ 1.59 µM); against Serra. marc. ATCC 13880 it was above 200 µg/mL. Moreover, the results for the MIC with Shigella HH 117 and against Strep. faecalis HH 34358 were 3.1 µg/mL (≈ 6.14 µM) and 200 µg/mL (≈ 396 µM), respectively. Also, the 50% effective dose (ED50) is above 50 mg/kg in the assay on E. coli 12140 (setting [5]); 1.1 mg/kg with E. coli 12140 (setting [6]); 39 mg/kg in the assay with Kleb. pneumo. 4200 (po, Kleb. pneumo. 4200, p.o.); 0.8 mg/kg with Kleb. pneumo. 4200 (sc, Kleb. pneumo. 4200, s.c.). In the assay with Kleb. pneumo. 4200 (Kleb. pneumo. 4200, s.c.), the ED50 in vivo is below 0.78 mg/kg.

One may read the MIC as the smallest concentration in the dilution series that meets the test's criterion for growth inhibition. For orientation: ED50 means the dose at which the effect has come halfway, by size or by number of responders. Low readings indicate greater potency, high ones weaker potency.
